Reference: patent US10662214B2, “Compound of 4′-thionucleoside, as well as preparation method therefor, pharmaceutical composition thereof and application thereof” (Sichuan Kelun-Biotech Biopharmaceutical Co., Ltd., priority 2015, dated 2020)

Assays:
[1] = test system: gastric cancer cell NCI-N87; experiment: Subcutaneous xenograft of gastric cancer cell NCI-N87 in nude mice (Experimental example 2); assay type: in vivo; settings: 190 μmol/kg i.v.
Description: (§2) This experimental example was used for the evaluation of the effectiveness of the compounds of the present invention in inhibiting the proliferation of a subcutaneous xenograft of human tumor cells via various routes of administration.
(§3) Gastric cancer cell NCI-N87 and colorectal cancer cell HCT-116 were cultured as a monolayer in vitro, and the culture conditions were RPMI-1640 culture medium supplemented with 10% heat inactivated Fetal Bovine Serum, and incubation in an incubator at 37° C. and 5% CO2. The cells were subcultured by treatment with trypsin-EDTA digestion.
(§4) The tumor cells were respectively inoculated into BALB/c nude mice (SPF grade, female, 16-18 g per mouse, about 6 to 8 weeks old, Beijing Vital River Laboratory Animal Technology Co., Ltd.).
(§5) Each nude mouse was inoculated with about 2.5×10^6 HCT-116 tumor cells or about 3×10^6 NCI-N87 tumor cells (suspended in 0.1 ml PBS) subcutaneously into the underarm of the right flank. After the inoculated tumor reached a size in the range of about 100-200 mm^3, nude mice bearing a tumor that is too small (smaller than 100 mm^3) or too big (bigger than 200 mm^3) were removed from the study, and the remaining ones were randomized into groups.
(§6) Sulfobutyl ether-β-cyclodextrin (SE-β-CD) was formulated with physiological saline to form a 10% solution, which was then filtered through a 0.22 μm sterile filter for later use.
(§7) An appropriate amount of the test compound was weighted, and added in DMSO. The resultant solution was vortexed to uniformity, and the 10% solution of SE-β-CD was added according to the desired concentration. The solution was vortexed to uniformity, and the final concentration of DMSO was adjusted to 5%. A gemcitabine injection (a positive control) was directly diluted to the desired concentration with physiological saline. A 10% solution of SE-β-CD containing 5% DMSO was prepared as a vehicle control.
(§8) Mice bearing a tumor having a volume of about 100-200 mm^3 were selected, and randomized into 5 groups (8 mice per group). The dosing volume was 10 mL/kg, and the administration (intravenous administration (i.v.) or oral administration (p.o.)) was performed twice a week for 3 weeks. The tumor volume and body weight were measured twice a week after the administration, and the mortality of animals was observed every day.
(§9) The diameter of a tumor was measured, and the tumor volume was calculated according to the following formula: V=0.5a×b^2, wherein a and b respectively represent the major and minor diameters of a tumor. The anti-tumor effect was evaluated by the tumor growth inhibition (TGI) (%). TGI (%)=[1−(VT-end−VT-start)/(VC-end−VC-start)]*100%
(§10) The body weight of an animal was measured twice a week.

[2] = test system: human pancreatic cancer cell BxPC-3; experiment: Subcutaneous xenograft of human pancreatic cancer cell BxPC-3 in a nude mouse (Experimental example 3); assay type: in vivo; settings: once every 3 days, 4 times
Description: According to methods similar to those in sections 1 to 2 in Experimental example 2, pancreatic cancer cell BxPC-3 was cultured as a monolayer in vitro, and inoculated, and the animals were randomized into groups.
An appropriate amount of the test compound was weighted out, and added in DMSO. The 10% solution of SE-β-CD was then added according to the desired concentration, and the final concentration of DMSO was adjusted to 2.5%. A gemcitabine injection (a positive control) was diluted to the desired concentration with physiological saline. A 10% solution of SE-β-CD containing 2.5% DMSO was prepared as a vehicle control.
Mice bearing a tumor having a volume of 100-200 mm^3 were selected, and randomized into 14 groups (7 mice per group). The dosing volume was 20 mL/kg, and the administration (intravenous administration (i.v.)) was performed once every 3 days, for 4 times in total.
(§1) For statistical calculations of the test indexes, please refer to Experimental example 2.

[3] = test system: human pancreatic cancer cell BxPC-3; experiment: Subcutaneous xenograft of human pancreatic cancer cell BxPC-3 in a nude mouse (Experimental example 4); assay type: in vivo
Description: According to methods similar to those in sections 1 to 3 in Experimental example 2, pancreatic cancer cell BxPC-3 was cultured as a monolayer in vitro, and inoculated; the animals were randomized into groups; and samples were prepared.
Mice bearing a tumor having a volume of 80-250 mm^3 were selected, and randomized into 6 groups (8 mice per group). The dosing volume was 10 mL/kg.
as §1
The test results obtained by administrating (intravenous administration (i.v.) or oral administration (p.o.)) once a week for 3 weeks are shown in table 7-2.

[4] = test system: human pancreatic cancer cell Capan-1; experiment: Subcutaneous xenograft of human pancreatic cancer cell Capan-1 in a nude mouse (Experimental example 5); assay type: in vivo; settings: once every 3 days, 6 times
Description: According to methods similar to those in sections 1 to 2 in Experimental example 2, pancreatic cancer cell Capan-1 was cultured as a monolayer in vitro, and inoculated, and the animals were randomized into groups.
Samples were prepared as described in Experimental example 2.
Mice bearing a tumor having a volume of 100-200 mm^3 were selected, and randomized into 7 groups (7 mice per group).
as §1

[5] = test system: human pancreatic cancer cell PANC-1; experiment: Subcutaneous xenograft of human pancreatic cancer cell PANC-1 in a nude mouse (Experimental example 6); assay type: in vivo; settings: 0.06 mmol/kg i.v., once every 3 days, 6 times
Description: This test was performed according to experimental example 5.
Mice bearing a tumor having a volume of 100-200 mm^3 were selected, and randomized into 4 groups (6 mice per group).

[6] = mice, significant dose administered intravenously; cited from earlier work
[7] = test system: colorectal cancer cell HCT-116; experiment: Subcutaneous xenograft of colorectal cancer cell HCT-116 in nude mice (Experimental example 2); settings: 190 μmol/kg i.v.
Description: as §2, §3, §4, §5, §6, §7, §8, §9, §10

Nc1ccn([C@@H]2O[C@H](CO)[C@@H](O)C2(F)F)c(=O)n1 [Gemcitabine injection, Gemcitabine, reference compound]
TGI (%) ([1]; twice a week for 3 weeks): 107% | Tumor regression, CR (complete tumor regression) ([1]; animals out of 8): 2/8 CR, | Tumor regression, PR (partial tumor regression) ([1]; animals out of 8): 6/8 PR | TGI (%) ([2]; 0.04 mmol/kg i.v.): −2.2% | TGI (%) ([2]; 0.12 mmol/kg i.v.): 28.9% | TGI (%) ([2]; 0.24 mmol/kg i.v.): 45.5% | TGI (%) ([3]; 0.12 mmol/kg i.v., twice a week for 3 weeks): 23.6% | TGI (%) ([3]; 0.23 mmol/kg i.v., once a week for 3 weeks): 23.6% | TGI (%) ([4]; 0.02 mmol/kg i.v.): 15.4% | TGI (%) ([4]; 0.19 mmol/kg i.v.): 78.9% | TGI (%) [5]: 64.4% | death or gastrointestinal toxicity after intravenous dosing [6]: no death or gastrointestinal toxicity | Mortality [7]: 0 | TGI (%) ([7]; twice a week for 3 weeks): 92% | Tumor regression ([7]; 14 days after last administration): 0
